Experimental data as given in article PMC6001238, “Iterative Chemical Engineering of Vancomycin Leads to Novel Vancomycin Analogs With a High in Vitro Therapeutic Index” (Frontiers in Microbiology, 2018).
pIC50: −log10 of the molar value. Values after ≈ are worked out from the molar mass of the structure shown. Read-outs that look alike come from different tables or passages of the source.

Assays:
[1] = system: MRSA KS1; assay: MIC, broth microdilution, MRSA KS1; format: cell-based, Staphylococcus aureus
Outline: (§1)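 Susceptibility was scored by broth microdilution (CLSI). In one instance each vancomycin analog or control antibiotic was tested in the presence of vancomycin, 10 μM final, and ultrapure water plus non-inoculated broth were included as controls.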

[2] = system: human T-lymphocyte (CEM) cells; assay: Cytostatic activity, CEM cell proliferation; format: cell-based; settings: mean ± SD of three experiments; highest concentration tested 250 µM; 3 days; read-out: Toxicity (IC50) CEM
Outline: (§2)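 Readout: Coulter cell number after drug exposure at 37°C. Durations differ by line (L1210 2 days; CEM 3 days; HeLa 4 days). Stock suspension 300,000–500,000 cells/mL, diluted by mixing with compound. Endpoint: IC50 vs negative control.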

[3] = system: Clostridium difficile AIU ribotype 027; assay: MIC, plate drop assay, C. difficile AIU ribotype 027; format: cell-based; settings: C. difficile AIU ribotype 027
Outline: (§3)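 Twofold dilution series of test compounds were spotted onto C. difficile lawns in 0.4% BHI agar containing added calcium and magnesium salts. After overnight anaerobic incubation at 37°C, growth inhibition was scored by spot clearing; triplicate runs, ultrapure water negative control.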

[4] = system: L1210, CEM and HeLa cell lines; assay: Cytostatic activity, average or summary over L1210, CEM and HeLa; format: cell-based
Outline: as §2

[5] = system: MRSA KS89; assay: MIC, broth microdilution, MRSA KS89; format: cell-based, Staphylococcus aureus
Outline: as §1

[6] = system: E. faecalis VRE 6; assay: MIC, broth microdilution, vancomycin-resistant E. faecalis VRE 6 (VanA); format: cell-based, Enterococcus faecalis
Outline: as §1

[7] = system: VE 149 (VanB); assay: MIC, VanB-type VRE strain VE 149; format: cell-based, Enterococcus; settings: VE 149, VanB; read-out: MIC
Outline: as §1

[8] = system: MRSA; assay: Minimum bactericidal concentration against MRSA; format: cell-based, Staphylococcus aureus
Experimental: Plates were incubated overnight at 37°C and colony growth was inspected.

[9] = system: Clostridium difficile ATJ ribotype 014/20; assay: MIC, plate drop assay, C. difficile ATJ ribotype 014/20; format: cell-based; settings: C. difficile ATJ ribotype 014/20
Outline: as §3

[10] = system: S. aureus VISA/HIP5827; assay: MIC, broth microdilution, vancomycin-intermediate S. aureus VISA HIP5827; format: cell-based, Staphylococcus aureus
Outline: as §1

[11] = system: E. faecalis VSE 1; assay: MIC, broth microdilution, vancomycin-sensitive E. faecalis (VSE 1); format: cell-based, Enterococcus faecalis
Outline: as §1

[12] = system: S. aureus VRSA; assay: MIC, broth microdilution, vancomycin-resistant S. aureus (VRSA); format: cell-based, Staphylococcus aureus
Outline: as §1

[13] = system: E. faecalis VRE 37; assay: MIC, broth microdilution, vancomycin-resistant E. faecalis VRE 37 (VanA); format: cell-based, Enterococcus faecalis
Outline: as §1

[14] = system: 33 clinical VRE isolates; assay: MIC against a set of 33 clinical VRE isolates (range, MIC50, TI); format: cell-based, Enterococcus faecalis
Outline: as §1

[15] = system: E. faecalis VRE 53; assay: MIC, broth microdilution, vancomycin-resistant E. faecalis VRE 53 (VanA); format: cell-based, Enterococcus faecalis
Outline: as §1

[16] = system: VE 150 (VanB); assay: MIC, VanB-type VRE strain VE 150; format: cell-based, Enterococcus; settings: VE 150, VanB; read-out: MIC
Outline: as §1

[17] = system: VE 152 (VanB); assay: MIC, VanB-type VRE strain VE 152; format: cell-based, Enterococcus; settings: VE 152, VanB; read-out: MIC
Outline: as §1

[18] = system: E. faecalis VRE 29; assay: MIC, broth microdilution, vancomycin-resistant E. faecalis VRE 29 (VanA); format: cell-based, Enterococcus faecalis
Outline: as §1

[19] = system: MRSA KS6; assay: MIC, broth microdilution, MRSA KS6; format: cell-based, Staphylococcus aureus
Outline: as §1

[20] = system: Murine leukemia (L1210) cells; assay: Cytostatic activity, L1210 cell proliferation; format: cell-based; settings: mean ± SD of three experiments; highest concentration tested 250 µM; 2 days; read-out: Toxicity (IC50) L1210
Outline: as §2

[21] = system: human cervix carcinoma (HeLa) cells; assay: Cytostatic activity, HeLa cell proliferation; format: cell-based; settings: mean ± SD of three experiments; highest concentration tested 250 µM; 4 days; read-out: Toxicity (IC50) HeLa
Outline: as §2

[22] = system: VE 148 (VanB); assay: MIC, VanB-type VRE strain VE 148; format: cell-based, Enterococcus; settings: VE 148, VanB; read-out: MIC
Outline: as §1

[23] = system: S. aureus VSSA (ATCC 6538); assay: MIC, broth microdilution, vancomycin-sensitive S. aureus (VSSA/MSSA, ATCC 6538); format: cell-based, Staphylococcus aureus
Outline: as §1

[24] = system: MRSA KS2; assay: MIC, broth microdilution, MRSA KS2; format: cell-based, Staphylococcus aureus
Outline: as §1

[25] = system: VE 82 (VanC1); assay: MIC, VanC1-type VRE strain VE 82; format: cell-based, Enterococcus gallinarum; settings: VE 82, VanC1; read-out: MIC
Outline: as §1

[26] = system: VE 157 (VanB); assay: MIC, VanB-type VRE strain VE 157; format: cell-based, Enterococcus; settings: VE 157, VanB; read-out: MIC
Outline: as §1

[27] = system: 24 clinical MRSA isolates; assay: MIC against a set of 24 clinical MRSA isolates (range, MIC50, TI); format: cell-based, Staphylococcus aureus
Outline: as §1

CCCCc1ccc(NC(=O)CNC(=O)[C@H]2NC(=O)[C@H]3NC(=O)[C@H](NC(=O)[C@@H]4NC(=O)[C@H](CC(N)=O)NC(=O)[C@H](NC(=O)[C@@H](CC(C)C)NC)[C@H](O)c5ccc(c(Cl)c5)Oc5cc4cc(c5O[C@@H]4O[C@H](CO)[C@@H](O)[C@H](O)[C@H]4O[C@H]4C[C@](C)(N)[C@H](O)[C@H](C)O4)Oc4ccc(cc4Cl)[C@H]3O)c3ccc(O)c(c3)-c3c(O)cc(O)cc32)cc1 [Vanc-39]
MIC-fold improvement vs. vancomycin ([1]; MRSA KS1, ratio of MIC of vancomycin and MIC of analogue): 4
MIC ([1]; Staphylococcus aureus MRSA KS1, read-out: MIC): 0.20 µM (≈ 0.328 µg/mL)
pIC50 [2]: < 3.60
MIC-fold improvement vs. vancomycin [3]: 14
pIC50 ([4]; average IC50 used for TI in Table S5, >250 entered as 250, read-out: IC50): 3.60
pIC50 ([4]; average of L1210, CEM and HeLa, read-out: Toxicity (IC50) Average): < 3.60
pIC50 ([4]; summary over the three cell lines, read-out: IC50 (L1210, CEM, HeLa), depending on the cell line used): < 3.60
MIC-fold improvement vs. vancomycin ([5]; MRSA KS8, ratio of MIC of vancomycin and MIC of analogue): 4
MIC ([5]; Staphylococcus aureus MRSA KS8, read-out: MIC): 0.20 µM (≈ 0.328 µg/mL)
MIC ([6]; Enterococcus faecalis VRE 6 (vancomycin-resistant), read-out: MIC): 3.13 µM (≈ 5.13 µg/mL)
MIC-fold improvement vs. vancomycin ([6]; VRE 6, ratio of MIC of vancomycin and MIC of analogue): 64
MIC [7]: 0.78 µM (≈ 1.28 µg/mL)
MBC relative to MIC [8]: MBC equaling their MIC values
MIC-fold improvement vs. vancomycin [9]: 22
MIC ([10]; Staphylococcus aureus VISA/HIP5827, read-out: MIC): 0.39 µM (≈ 0.639 µg/mL)
MIC-fold improvement vs. vancomycin ([10]; VISA/HIP5827, ratio of MIC of vancomycin and MIC of analogue): 16
MIC ([11]; Enterococcus faecalis VSE 1 (vancomycin-sensitive), read-out: MIC): 0.20 µM (≈ 0.328 µg/mL)
MIC-fold improvement vs. vancomycin ([11]; VSE 1, ratio of MIC of vancomycin and MIC of analogue): 8
MIC ([12]; Staphylococcus aureus VRSA, read-out: MIC): 0.78 µM (≈ 1.28 µg/mL)
MIC-fold improvement vs. vancomycin ([12]; VRSA, ratio of MIC of vancomycin and MIC of analogue): 128
MIC ([13]; Enterococcus faecalis VRE 37 (vancomycin-resistant), read-out: MIC): 6.25 µM (≈ 10.2 µg/mL)
MIC-fold improvement vs. vancomycin ([13]; VRE 37, ratio of MIC of vancomycin and MIC of analogue): 64
MIC Range ([14]; 33 clinical VRE isolates): 0.78 to 12.5 µM
TI (IC50/MIC50) ([14]; in vitro therapeutic index, VRE): 80
MIC50 ([14]; median MIC, 33 clinical VRE isolates, read-out: MIC50): 3.13 µM (≈ 5.13 µg/mL)
MIC ([15]; Enterococcus faecalis VRE 53 (vancomycin-resistant), read-out: MIC): 50 µM (≈ 81.9 µg/mL)
MIC-fold improvement vs. vancomycin ([15]; VRE 53, ratio of MIC of vancomycin and MIC of analogue): 8
MIC [16]: 1.56 µM (≈ 2.55 µg/mL)
MIC [17]: 0.78 µM (≈ 1.28 µg/mL)
MIC ([18]; Enterococcus faecalis VRE 29 (vancomycin-resistant), read-out: MIC): 6.25 µM (≈ 10.2 µg/mL)
MIC-fold improvement vs. vancomycin ([18]; VRE 29, ratio of MIC of vancomycin and MIC of analogue): 64
MIC-fold improvement vs. vancomycin ([19]; MRSA KS6, ratio of MIC of vancomycin and MIC of analogue): 4
MIC ([19]; Staphylococcus aureus MRSA KS6, read-out: MIC): 0.20 µM (≈ 0.328 µg/mL)
pIC50 [20]: < 3.60
pIC50 [21]: < 3.60
MIC [22]: 3.13 µM (≈ 5.13 µg/mL)
MIC ([23]; Staphylococcus aureus VSSA, read-out: MIC): 0.05 µM (≈ 0.0819 µg/mL)
MIC-fold improvement vs. vancomycin ([23]; VSSA, ratio of MIC of vancomycin and MIC of analogue): 16
MIC-fold improvement vs. vancomycin ([24]; MRSA KS2, ratio of MIC of vancomycin and MIC of analogue): 4
MIC ([24]; Staphylococcus aureus MRSA KS2, read-out: MIC): 0.20 µM (≈ 0.328 µg/mL)
MIC [25]: 0.78 µM (≈ 1.28 µg/mL)
MIC [26]: 0.78 µM (≈ 1.28 µg/mL)
TI (IC50/MIC50) ([27]; in vitro therapeutic index, MRSA): 641
MIC50 ([27]; median MIC, 24 clinical MRSA isolates, read-out: MIC50): 0.39 µM (≈ 0.639 µg/mL)
